According to the supplement of paper PMC10883282:

How the values were obtained:
Assay in all cases: relative viability vs DMSO control (72 h) (fraction); higher = more viable cells
SYO-1 = test system: SYO-1
Summary of the method: (§1)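 Sarcoma cell lines went into 384-well plates at densities chosen to reach 80–90% confluence. After 24 h, each well received 2.5 µl of serially diluted compound, with source plates running from 10 mM to 0.0002 mM, and the plates were kept 72 h at 37 °C, 5% CO2, alongside 0.1% DMSO vehicle and a 5 µM positive control. Relative viability was derived from ATPLite readings as percent growth and averaged over up to triplicate wells. The data were then rescaled so that 1 stands for full and 0 for none.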

KHOS-NP = test system: KHOS-NP
Summary of the method: as §1

SW684 = test system: SW684
Summary of the method: as §1

RD-ES = test system: RD-ES
Summary of the method: as §1

HT1080 = test system: HT1080
Summary of the method: as §1

CCN1CCN(c2ccc(Nc3cc(N(C)C(=O)Nc4c(Cl)c(OC)cc(OC)c4Cl)ncn3)cc2)CC1 [Infigratinib]
relative viability
Settings	HT1080	KHOS-NP	RD-ES	SW684	SYO-1
85 pM	1.03	1.07	0.972	1.18	1.02
0.000254 µM	1.07	1.12	0.95	1.19	0.973
0.00076 µM	1.072	1.09	0.965	1.19	0.975
0.00229 µM	1.04	1.06	0.998	1.14	0.901
0.00686 µM	1.053	1.08	0.981	1.18	0.827
0.02058 µM	1.067	1.085	0.959	1.18	0.655
0.0617 µM	1.04	1.08	0.957	1.16	0.626
0.1852 µM	1.06	1.05	0.959	1.17	0.63
0.5556 µM	1.087	1.06	0.928	1.15	0.596
1.6667 µM	1.11	1.08	0.802	1.22	0.623
5 µM	1.01	1.08	0.783	1.14	0.606

CS(=O)(=O)CCNCc1ccc(-c2ccc3ncnc(Nc4ccc(OCc5cccc(F)c5)c(Cl)c4)c3c2)o1 [Lapatinib]
relative viability
Settings	HT1080	KHOS-NP	RD-ES	SW684	SYO-1
0.00017 µM	1.04	1.059	0.951	1.15	0.955
0.00051 µM	1.035	1.055	0.948	1.13	0.93
0.00152 µM	1.04	1.05	0.954	1.14	0.958
0.00457 µM	1.05	1.07	0.958	1.13	0.959
0.01372 µM	1.07	1.055	0.963	1.13	0.936
0.04115 µM	1.04	1.053	0.964	1.17	0.949
0.1235 µM	1.04	1.06	0.97	1.15	0.934
0.3704 µM	1.059	1.1	0.977	1.14	0.944
1.111 µM	1.1	1.07	0.951	1.19	0.912
3.333 µM	1.09	1.02	0.931	1.15	0.637
10 µM	0.674	0.93	0.909	0.707	0.165
